The target of this assay is T1, human glycogen phosphorylase a (Homo sapiens, UniProt P06737).
T1 sequence (P06737 1-847): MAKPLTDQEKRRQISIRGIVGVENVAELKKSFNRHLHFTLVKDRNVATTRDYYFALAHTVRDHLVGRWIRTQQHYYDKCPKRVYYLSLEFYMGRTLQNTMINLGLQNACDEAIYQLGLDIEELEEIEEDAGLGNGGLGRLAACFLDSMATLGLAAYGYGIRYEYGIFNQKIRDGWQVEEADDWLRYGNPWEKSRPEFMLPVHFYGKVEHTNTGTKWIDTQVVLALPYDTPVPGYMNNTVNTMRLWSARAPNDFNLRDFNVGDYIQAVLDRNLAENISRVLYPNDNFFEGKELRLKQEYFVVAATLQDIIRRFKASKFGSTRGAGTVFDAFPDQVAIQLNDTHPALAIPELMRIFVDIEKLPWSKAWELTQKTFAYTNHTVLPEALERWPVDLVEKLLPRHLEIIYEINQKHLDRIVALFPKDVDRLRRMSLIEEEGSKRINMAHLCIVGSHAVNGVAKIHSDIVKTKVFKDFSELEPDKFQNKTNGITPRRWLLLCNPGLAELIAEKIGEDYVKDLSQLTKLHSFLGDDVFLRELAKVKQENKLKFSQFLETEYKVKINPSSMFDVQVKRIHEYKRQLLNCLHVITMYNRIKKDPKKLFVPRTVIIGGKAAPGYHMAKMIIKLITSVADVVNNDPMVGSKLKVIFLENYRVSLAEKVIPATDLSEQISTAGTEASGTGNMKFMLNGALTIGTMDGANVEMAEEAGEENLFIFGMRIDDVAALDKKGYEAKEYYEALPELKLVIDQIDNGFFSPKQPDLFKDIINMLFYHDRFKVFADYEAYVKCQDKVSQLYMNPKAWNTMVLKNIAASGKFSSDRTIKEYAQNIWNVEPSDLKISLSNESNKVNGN
Description: Glycogen phosphorylase a activity assay. The assay is classed as biochemical. Conditions: 10 μM test substance; GPa activity measured in the reverse direction (glycogen synthesis from glucose 1-phosphate, liberated inorganic phosphate, absorption at 820 nm); in vitro. As for the experimental part:
Glycogen Phosphorylase a Activity Assay
The effect of compounds on the activity of the active form of glycogen phosphorylase (GPa) was measured in the reverse direction by following the synthesis of glycogen from glucose 1-phosphate by determining the liberation of inorganic phosphate. All the reactions were carried out as duplicate determinations in microtiter plates with 96 wells (Half Area Plates, Costar No 3696), measuring the change in absorption owing to the formation of the reaction product at the wavelength specified hereinafter in a Multiskan Ascent Elisa Reader (Lab Systems, Finland). […] The baseline glycogen phosphorylase a activity in the absence of test substance was determined by adding 10 μl of buffer solution T (0.1% DMSO). The mixture was incubated at room temperature for 40 minutes, and the liberated inorganic phosphate was measured by the general method of Drueckes et al. (Drueckes P, Schinzel R, Palm D, Anal Biochem 1995 Sep. 1;230(1):173-177) with the following modifications: 50 μl of a stop solution of 7.3 mM ammonium molybdate, 10.9 mM zinc acetate, 3.6% ascorbic acid, 0.9% SDS are added to 50 μl of the enzyme mixture. After incubation at 45° C. for 60 minutes, the absorption at 820 nm was measured. […]

For one compound, inhibition results are on record in patent publication US6812250B2, “Carboxamide-substituted phenylurea derivatives, process for their preparation and their use as medicaments” (Aventis Pharma Deutschland GmbH, priority 2001, dated 2004).

Consider `CCOC(=O)N1CCC(NC(=O)c2ccc(Cl)c(NC(=O)NC(=O)c3ccccc3Cl)c2)CC1` [Example 1, Ethyl 4-{4-chloro-3-[3-(2-chlorobenzoyl)ureido]benzoylamino}piperidine-1-carboxylate], for which the inhibition at 10 µM amounted to 87%.

By inhibition is commonly meant the drop in the measured response relative to a control, in per cent.
